Active and inactive are the calls of the source. The calls are words filed in the database; no cut-off is given here. Positions of bridges follow the written chain, without caps; N, C: chain ends. Residues, ends and D or L forms follow the SMILES beside them.
Test system: Escherichia coli
Assay: Inhibition of Escherichia coli RNA polymerase assessed as reduction in transcriptional capacity by abortive transcription initiation assay

Compound: CC[C@H](C)[C@@H]1NC(=O)[C@H](CO)NC(=O)CNC(=O)[C@H](CC(=O)O)NC(=O)CNC(=O)CNC(=O)CC[C@@H](C(=O)N[C@@H](Cc2ccc(O)cc2)C(=O)N[C@@H](Cc2ccccc2)C(=O)N[C@@H](CC(N)=O)C(=O)N[C@@H](CCCNC(=N)N)C(=O)N2CCC[C@H]2C(=O)N[C@@H](CCSC)C(=O)N[C@@H](Cc2c[nH]cn2)C(=O)N[C@H](C(=O)N[C@@H](Cc2c[nH]cn2)C(=O)N[C@@H](CC(=O)O)C(=O)N[C@@H](Cc2c[nH]c3ccccc23)C(=O)N[C@@H](CCC(N)=O)C(=O)N[C@H](C(=O)N[C@@H](CCSC)C(=O)N[C@@H](CC(=O)O)C(=O)N[C@@H](CO)C(=O)NCC(=O)N[C@@H](Cc2ccc(O)cc2)C(=O)N[C@@H](Cc2ccc(O)cc2)C(=O)NCC(=O)O)[C@@H](C)CC)[C@@H](C)CC)NC(=O)[C@H](C)NC1=O (GGDGSIAEYFNRPMHIHDWQIMDSGYYG-OH; lactam N-8)
- inhibition: Active

— ChEMBL document CHEMBL5370645, “Discovery, Characterization, and Bioactivity of the Achromonodins: Lasso Peptides Encoded by Achromobacter” (J Nat Prod, 2023)
